According to patent US12637434B2, “Salt of arylaminoquinazoline-containing compound, and preparation method therefor and use thereof” (priority 2020, dated 2026):
≈ marks a conversion by molar mass, not a printed value. Entries after “also recorded” stand apart in the source; their conditions may differ. Read-outs that look alike come from different tables or passages of the source.

Tests used:
[1] = Slurrying in organic solvents, crystalline form by XRPD; format: physicochemical; conditions: ~15 mg in 0.5 mL of solvents of Table 15, room temperature and 50° C.
Procedure: Note: The sample of Example 1 (˜15 mg) was added to 0.5 mL of the different solvents listed in Table 15, and slurried at room temperature and 50° C., and the filtered sample was subjected to X-ray powder diffraction. The crystalline form was consistent with that of the dihydrochloride salt obtained in Example 1.

Solid stability test = format: physicochemical; conditions: 40° C./75% RH (open), 7 days
Procedure: The dihydrochloride salt of Example 1 and the dihydrochloride salt tetrahydrate of Example 2 and Example 10 were all placed under the condition of 40° C./75% RH (open) for 7 days to perform the stability test.

[2] = Solubility test in biological vehicles (FaSSIF, FeSSIF, SGF); format: physicochemical; conditions: for solubility at 0.5 h: 37 °C, thermodynamic from solid
Procedure: 9. Determination of Solubility in Biological Vehicles
The preparation procedures of the biological vehicles (SGF, FeSSIF and FaSSIF) used for solubility determination were shown in the following table:
Test method: a sample to be tested was added to a biological vehicles and prepared into a solution or suspension having a target concentration of 10 mg/mL. The resulting solution or suspension was shaken continuously at 200 rpm at 37° C. The suspension was filtered at 0.5 hour and the concentration of the compound in the filtrate was determined by using HPLC.
Solubility Test in Biological Vehicles
The samples of Example 1 and Example 10 (20 mg each) were weighed, and different biological vehicles (2 mL) were added threreto to perform the solubility test, and the results were shown in Table 11.

Long-term stability test = format: physicochemical; conditions: for Purity (5 months) / Appearance / Crystalline form: 40 ± 2° C., 75% ± 5% RH, 5 months; for Appearance / Crystalline form: sealed with polyethylene film; for Purity (0 month): start of long-term stability test
Procedure: An appropriate amount of the salt samples obtained in Examples 1 to 4 and 9 were sealed with a polyethylene film and placed for 5 months under the conditions of 40±2° C. and 75%±5% RH, and a long-term test was carried out.

human melanoma A375 = test: Pharmacodynamic experiment of human melanoma A375 nude mice xenograft tumor model; format: in vivo, nu/nu female nude mice; conditions: for Animal number (Survival/total) / Tumor weight / Inhibition rate %: once a day, 20 days; for Tumor weight / Inhibition rate %: Day 21; for Inhibition rate %: tumor weight
Procedure: Pharmacodynamic Experiment of Human Melanoma A375 Nude Mice Xenograft Tumor Model
A well-growing human melanoma A375 cell suspension was inoculated into the subcutaneous tissue of the forelimb axilla of nu/nu female nude mice in an inoculation volume of 0.1 mL containing approximately 1×10^7 tumor cells. When the tumor volume grew to 100 mm^3 or more, the mice with good tumor growth were selected, and the animals were evenly divided into 5 groups according to the tumor volume: a Vehicle group, a Vandetanib 12.5 mg/kg group, a Vandetanib 25 mg/kg group, an Example 1 sample 12.5 mg/kg group, and an Example 1 sample 25 mg/kg group, and there were 6 animals in each group. The Vehicle group was orally administered with distilled water, and the remaining groups were orally administered with the corresponding tested drugs in a dosing volume of 20 mL/kg, once a day, and continuously administered for 20 days. The animals were housed normally after administration, and the anti-tumor effect of the tested drugs was dynamically observed by using the method of measuring the diameter of the tumors. At the end of the experiment (Day 21), the animals were sacrificed, and the tumors, were stripped and weighed, and the tumor inhibition rate was calculated.

[3] = Mechanical stability test; format: physicochemical; conditions: mechanical grinding for 5 minutes
Procedure: Mechanical Stability Test
An appropriate amount of the dihydrochloride salt of Example 1 was subjected to mechanical grinding for 5 minutes, and X-ray powder diffraction was performed.

[4] = Solubility test in water and pH 2.0 buffer (HPLC); format: physicochemical; conditions: for solubility in pH 2.0 buffer compared with Preparation Example 1 (in words): acidic conditions; for solubility: 25 °C, thermodynamic from solid; for Solubility (25° C., mg/mL) Medium: pH 2.0 buffer / Solubility (25° C., mg/mL) Medium: Water / solubility: 25° C.
Procedure: 2. Solubility (Water and pH 2.0 Buffer)
Detection Instrument: Agilent 1260 High Performance Liquid Chromatograph
Detection medium: purified water, pH 2.0 phosphoric acid-disodium hydrogen phosphate buffer
Preparation of control solution: it was taken that an appropriate amount of the referen ce substance of the compound of Formula 1, accurately weighed, dissolved completely by solven t and diluted to 100 μg/mL. 10 μL of the prepared solution was accurately measured and the conte nts of Compound 1 were determined by HPLC.
The salts obtained in Preparation Example 1, Examples 1 to 4 and 9 and Comparative Examples 1 to 2 were tested for solubility in water and pH 2.0 buffer.

[5] = Solubility test in conventional organic solvents; format: physicochemical
Procedure: Solubility Test in Conventional Organic Solvents
The solubility test of the sample of Preparation Example 1 in different organic solvents was carried out by using the method in the Pharmacopoeia (Volume II, the general examples), and the solubility of the sample of Example 1 in different organic solvents was estimated using the gravimetric method, and the results were shown in Table 15.

[6] = pH 2.0 phosphoric acid-disodium hydrogen phosphate buffer
[7] = Preparation Example 1 by Pharmacopoeia method, Example 1 estimated by gravimetric method
[8] = 0.5 h, 37° C., 200 rpm, target concentration 10 mg/mL, unit not given
[9] = purified water, water, purified water, read-out: Solubility (25° C., mg/mL) Medium: Water

## COc1cc2c(Nc3ccc(Br)cc3F)ncnc2cc1OCCCCN(C)C [Example 1]
[1]
  crystalline form after slurrying in conventional organic solvents (XRPD): consistent; also recorded: stable
Solid stability test
  Crystalline form: Unchanged
  Purity: 99.64%
[2]; FaSSIF, pH 6.5, fassif, 0.5 h, 37° C., 200 rpm, target concentration 10 mg/mL, unit inferred, read-out: Solubility in FaSSIF (pH 6.5)
  solubility at 0.5 h: > 10 mg/mL
[2]; FaSSIF, FeSSIF, SGF
  solubility in biological vehicles with different pH (in words): good solubility
[2]; FeSSIF, pH 5, fessif, 0.5 h, 37° C., 200 rpm, target concentration 10 mg/mL, unit inferred, read-out: Solubility in FeSSIF (pH 5.0)
  solubility at 0.5 h: 5.07 mg/mL (≈ 10.9 mM)
[2]; SGF, pH 1.2, simulated gastric fluid, 0.5 h, 37° C., 200 rpm, target concentration 10 mg/mL, unit inferred, read-out: Solubility in SGF (pH 1.2)
  solubility at 0.5 h: > 10 mg/mL
Long-term stability test
  Purity (5 months): 99.60%
  Appearance: White powder
  Crystalline form: Unchanged
  Purity (0 month): 99.62%
Human melanoma A375; 12.5 mg/kg oral
  Animal number (Survival/total): 6/6
  Tumor weight: 1.77 ± 0.85 g
  Inhibition rate %: 47.99%
Human melanoma A375; 25 mg/kg oral
  Animal number (Survival/total): 6/6
  Tumor weight: 1.34 ± 1.15 g
  Inhibition rate %: 60.52%
Human melanoma A375; 12.5 and 25 mg/kg oral, compared with the Vehicle group
  effect on growth of tumors (in words): significantly inhibit the growth of tumors
[3]
  crystalline form after mechanical grinding (XRPD): not changed
[4]; [6]
  Solubility (25° C., mg/mL) Medium: pH 2.0 buffer: 14.29 mg/mL
[4]; purified water
  Solubility (25° C., mg/mL) Medium: Water: 40.07 mg/mL (≈ 86.5 mM)
[4]
  solubility in pH 2.0 buffer compared with Preparation Example 1 (in words): slightly better
[4]; water, listed as dihydrochloride salt
  water-solubility (in words): best of all samples
[5]; [7]
  Solubility (mg/mL) in Acetone: <0.46 mg/mL
  Solubility (mg/mL) in Acetonitrile: <0.38 mg/mL
  Solubility (mg/mL) in Dichloromethane: <0.44 mg/mL
  Solubility (mg/mL) in Ethanol: ~0.55 mg/mL (≈ 1.19 mM)
  Solubility (mg/mL) in Ethyl acetate: <0.38 mg/mL
  Solubility (mg/mL) in Isopropanol: <0.40 mg/mL
  Solubility (mg/mL) in Tetrahydrofuran: <0.37 mg/mL
[5]; all solvents of Table 15 except methanol
  solubility in the other seven commonly used organic solvents (in words): very poor solubility

## COc1cc2c(Nc3ccc(Br)cc3F)ncnc2cc1OCCCCN(C)C [Example 10]
Solid stability test
  Crystalline form: Unchanged
  Purity: 99.74%
[2]; 0.5 h, 37° C., 200 rpm, target concentration 10 mg/mL, unit inferred
  Solubility in FeSSIF (pH 5.0): 7.3 mg/mL
[2]; [8]
  Solubility in FaSSIF (pH 6.5): solution, >10
  Solubility in SGF (pH 1.2): solution, >10
[2]; FaSSIF, FeSSIF, SGF
  solubility in biological vehicles with different pH (in words): good solubility

## COc1cc2c(Nc3ccc(Br)cc3F)ncnc2cc1OCCCCN(C)C [Comparative Example 2]
[4]; purified water
  Solubility (25° C., mg/mL) Medium: Water: Jelly-like, solubility
[4]; purified water, listed as malate salt
  Solubility (25° C., mg/mL) Medium: Water: jelly-like

## COc1cc2c(Nc3ccc(Br)cc3F)ncnc2cc1OCCCCN(C)C.O=C(O)C(=O)O [Example 9]
Long-term stability test
  Purity (5 months): 99.34%
  Appearance: White powder
  Crystalline form: Unchanged
  Purity (0 month): 99.38%
[4]; [9]
  solubility: 2.89 mg/mL

## COc1cc2c(Nc3ccc(Br)cc3F)ncnc2cc1OCCCCN(C)C [Example 3]
Long-term stability test
  Purity (5 months): 98.84%
  Appearance: White powder
  Crystalline form: Unchanged
  Purity (0 month): 98.83%
[4]; [6]
  Solubility (25° C., mg/mL) Medium: pH 2.0 buffer: 5.00 mg/mL
[4]; purified water
  Solubility (25° C., mg/mL) Medium: Water: 10.91 mg/mL (≈ 23.5 mM)
[4]
  solubility in pH 2.0 buffer compared with Preparation Example 1 (in words): slightly lower

## COc1cc2c(Nc3ccc(Br)cc3F)ncnc2cc1OCCCCN(C)C [Example 2]
Solid stability test
  Crystalline form: Unchanged
  Purity: 98.54%
Long-term stability test
  Purity (5 months): 98.56%
  Appearance: White powder
  Crystalline form: Unchanged
  Purity (0 month): 98.55%
[4]; [6]
  Solubility (25° C., mg/mL) Medium: pH 2.0 buffer: 7.69 mg/mL
[4]; purified water
  Solubility (25° C., mg/mL) Medium: Water: 34.32 mg/mL (≈ 74.1 mM)
[4]
  solubility in pH 2.0 buffer compared with Preparation Example 1 (in words): slightly lower

## COc1cc2c(Nc3ccc(Br)cc3F)ncnc2cc1OCC1CCN(C)CC1 [Vandetanib, reference compound]
Human melanoma A375; 12.5 mg/kg oral
  Animal number (Survival/total): 6/6
  Tumor weight: 2.89 ± 0.67 g
  Inhibition rate %: 15.18%
Human melanoma A375; 25 mg/kg oral
  Animal number (Survival/total): 6/6
  Tumor weight: 1.90 ± 0.93 g
  Inhibition rate %: 44.15%

## COc1cc2c(Nc3ccc(Br)cc3F)ncnc2cc1OCCCCN(C)C [Preparation Example 1, 4-(4-bromo-2-fluoroanilino)-6-methoxy-7-[(4-N,N-dimethylamino)butoxy]quinazoline]
[4]; purified water
  Solubility (25° C., mg/mL) Medium: Water: 0.036 mg/mL (≈ 0.0777 mM)
[4]; water
  water-solubility (in words): very poor water-solubility
[5]; [7]
  Solubility (mg/mL) in Acetone: 44.04 mg/mL (≈ 95 mM)
  Solubility (mg/mL) in Acetonitrile: 10.66 mg/mL (≈ 23 mM)
  Solubility (mg/mL) in Dichloromethane: 30.49 mg/mL (≈ 65.8 mM)
  Solubility (mg/mL) in Ethanol: 205.2 mg/mL (≈ 443 mM)
  Solubility (mg/mL) in Ethyl acetate: 30.38 mg/mL (≈ 65.6 mM)
  Solubility (mg/mL) in Isopropanol: 51.05 mg/mL (≈ 110 mM)
  Solubility (mg/mL) in Tetrahydrofuran: 201.4 mg/mL (≈ 435 mM)
[5]; Methanol, Preparation Example 1 by Pharmacopoeia method, Example 1 estimated by gravimetric method
  Solubility (mg/mL) in Methanol: >60 mg/mL
[5]; organic solvent or mixture, thermodynamic from solid, read-out: solubility in various conventional organic solvents (all)
  solubility: > 10 mg/mL

## COc1cc2c(Nc3ccc(Br)cc3F)ncnc2cc1OCCCCN(C)C.O=C(O)/C=C\C(=O)O [Example 4]
Long-term stability test
  Purity (5 months): 96.41%
  Appearance: White powder
  Crystalline form: Unchanged
  Purity (0 month): 96.72%
[4]
  solubility in pH 2.0 buffer compared with Preparation Example 1 (in words): slightly better
[4]; pH 2.0 phosphoric acid-disodium hydrogen phosphate buffer, pH 2, aqueous buffer, pH 2.0 phosphoric acid-disodium hydrogen phosphate buffer, read-out: Solubility (25° C., mg/mL) Medium: pH 2.0 buffer
  solubility: 12.5 mg/mL
[4]; [9]
  solubility: 13.7 mg/mL

## COc1cc2c(Nc3ccc(Br)cc3F)ncnc2cc1OCCCCN(C)C [Comparative Example 1]
[4]; purified water
  Solubility (25° C., mg/mL) Medium: Water: Jelly-like, solubility
[4]; purified water, listed as monohydrochloride salt
  Solubility (25° C., mg/mL) Medium: Water: jelly-like
